Laboratory results from publication PMC9688475, “Identification and Analysis of Small Molecule Inhibitors of CRISPR-Cas9 in Human Cells” (Cells, 2022).
pIC50: −log10 of the molar value.

How the values were obtained:
SpCas9 [1] = target: T1, SpCas9 (Streptococcus pyogenes serotype M1, UniProt Q99ZW2); experiment: Inhibition of SpCas9 nuclease activity in EGFP/iCas9/gRNA-EGFP reporter 293T cells (flow cytometry); assay type: cell-based; parameters: expressed in transfected cells; host or cells: H2AX-EGFP HEK293T cells, lentiviral transduction, doxycycline-induced
T1 sequence (Q99ZW2 whole entry): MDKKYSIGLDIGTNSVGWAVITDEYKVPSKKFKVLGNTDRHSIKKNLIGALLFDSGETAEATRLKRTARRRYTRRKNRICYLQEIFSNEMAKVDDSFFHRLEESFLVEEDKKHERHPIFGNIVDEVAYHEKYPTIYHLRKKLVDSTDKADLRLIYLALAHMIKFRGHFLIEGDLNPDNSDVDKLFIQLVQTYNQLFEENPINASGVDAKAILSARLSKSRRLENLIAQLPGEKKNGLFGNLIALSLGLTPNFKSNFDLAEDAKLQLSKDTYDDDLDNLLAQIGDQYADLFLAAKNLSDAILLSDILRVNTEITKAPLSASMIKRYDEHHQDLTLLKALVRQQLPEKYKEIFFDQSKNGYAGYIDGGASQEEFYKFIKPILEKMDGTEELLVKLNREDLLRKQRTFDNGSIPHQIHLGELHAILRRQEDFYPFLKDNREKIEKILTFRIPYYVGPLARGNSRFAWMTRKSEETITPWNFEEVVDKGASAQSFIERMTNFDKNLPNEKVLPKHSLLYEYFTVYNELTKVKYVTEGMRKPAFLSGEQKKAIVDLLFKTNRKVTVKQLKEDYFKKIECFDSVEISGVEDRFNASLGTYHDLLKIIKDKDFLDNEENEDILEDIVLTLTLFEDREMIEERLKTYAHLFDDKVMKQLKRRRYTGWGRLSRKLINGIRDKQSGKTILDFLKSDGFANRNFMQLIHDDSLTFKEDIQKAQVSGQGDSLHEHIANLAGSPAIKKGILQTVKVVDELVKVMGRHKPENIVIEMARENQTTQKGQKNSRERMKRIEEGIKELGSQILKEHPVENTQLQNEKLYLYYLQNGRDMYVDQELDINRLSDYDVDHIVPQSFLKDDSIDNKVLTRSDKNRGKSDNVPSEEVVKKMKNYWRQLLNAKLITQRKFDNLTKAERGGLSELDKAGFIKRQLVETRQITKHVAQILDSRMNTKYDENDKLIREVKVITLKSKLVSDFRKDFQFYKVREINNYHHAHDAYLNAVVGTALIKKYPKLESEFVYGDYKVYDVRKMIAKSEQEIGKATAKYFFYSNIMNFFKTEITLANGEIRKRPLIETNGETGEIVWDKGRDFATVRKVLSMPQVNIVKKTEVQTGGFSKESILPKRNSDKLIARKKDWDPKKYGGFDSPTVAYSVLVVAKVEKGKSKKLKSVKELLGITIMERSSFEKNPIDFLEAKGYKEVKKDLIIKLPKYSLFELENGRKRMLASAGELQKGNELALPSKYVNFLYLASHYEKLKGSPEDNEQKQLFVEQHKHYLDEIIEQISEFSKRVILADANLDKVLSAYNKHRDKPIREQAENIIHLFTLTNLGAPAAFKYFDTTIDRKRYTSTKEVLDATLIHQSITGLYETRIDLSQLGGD
Description: The H2AX-EGFP 293T cell line was first generated using the previously reported MMEJ-mediated CRIS-PITCh system. Briefly, we cloned two gRNAs (Supplementary Table S3) that respectively target H2AX gene and the PITCh vector into the px330 plasmid (Addgene, #42230). The PITCh vector contains a pair of 20-bp homologous sequences targeting the upstream and downstream regions of the H2AX gRNA cleavage site, and the SFB-EGFP expression cassette. The three plasmids were co-transfected into 293T cells at an equimolar ratio. GFP-positive cells were sorted by FACS and individually expanded to isolate single clones for genomic DNA extraction and PCR verification of successful knock-in (KI) of the SFB-EGFP cassette into 5′-end of first exon of the H2AX gene. The selected H2AX-EGFP 293T cell clone was subsequently infected with lentiviruses encoding tetracycline-inducible SpCas9 (iCas9). After drug selection, individual clones were again expanded and verified for inducible Cas9 expression. The selected clone was subsequently infected with lentivirus encoding a gRNA that targets EGFP. Puromycin-resistant clones ([…], Thermo Fisher Scientific) were then isolated after >7 days for further analysis.

SpCas9 [2] = target: T1, SpCas9; experiment: SpCas9 in vitro DNA cleavage assay; assay type: biochemical; parameters: His6 (N); TEV site (N); made in house; host or cells: E. coli BL21 Star (DE3)
Procedure: The assay was carried out in NEBuffer 3 (New England Biolabs, Ipswich, MA, USA). First, 19.2 μL of the SpCas9–gRNA (58.8 nM) mixture was incubated with 2.4 μL of various compounds (dissolved in DMSO) at desired concentrations (0.1–2 mM) at room temperature for 10 min. Then, 2.4 μL of 3.48 nM ApaI-linearized px458 plasmid was added for further incubation at 37 °C for 60 min. The reaction was terminated by adding 0.5 μL Proteinase K (20 mg/mL) (Invitrogen) and incubation at 55 °C for 15 min. The reaction products were resolved on a 0.7% TAE agarose gel, stained with Gel Red (Biotium, Fremont, CA, USA). Then the products were visualized by Chemidoc XRS plus system (Bio-Rad, Hercules, CA, USA), and band intensities were quantified using ImageJ software (National Institutes of Health developed; Bethesda, MD, USA). The inhibition efficiency in the cleavage assays was calculated using the following equation: E = (C1 − C2)/C1 × 100%, where E is the inhibition efficiency, and C1 and C2 are the cleavage rate of the DMSO group and compound treated group, respectively.
The cleavage rate was calculated using the following equation:C = (B1 + B2)/(B0 + B1 + B2) × 100%, where C is the cleavage rate, B0, B1, and B2 are the band intensities of uncleaved products, upper cleaved products, and lower cleaved products, respectively.

XbaI = XbaI in vitro cleavage assay; assay type: biochemical; conditions: compound 200 μM
Procedure: (§1) In vitro cleavage experiments used commercial restriction enzymes (Thermo Fisher Scientific). The restriction enzyme NotI or XbaI (0.1 μL) was mixed with the compounds in a FastDigest buffer (Thermo Fisher Scientific). It was then incubated at room temperature for 10 min, and an ApaI-linearized px458 plasmid was added and reacted at 37 °C for 15 min. The samples were mixed with a DNA loading buffer. The cleavage products were electrophoresed on 1% TAE agarose gel and imaged using a Bio-Rad gel imager.

[3] = tested on: EGFP expression in uninduced reporter 293T cells; experiment: EGFP expression in uninduced reporter 293T cells; assay type: cell-based, human; conditions: for effect on EGFP expression in uninduced cells: 40 μM
Procedure: The reporter 293T cells were seeded into 96-well plates at a density of 10,000 cells per well and cultured overnight before the addition of DMSO alone or various compounds (in DMSO solution) at appropriate concentrations (0.125–100 μM) with or without 2 μg/mL doxycycline for an additional 72 h of incubation. The cells were then harvested for analysis with the CytoFLEX flow cytometer (Beckman Coulter, Brea, CA, USA) or analyzed by western blot with antibodies as indicated. […] The inhibiting efficiency in reporter 293T cells was calculated using the following equation: E’ = (P2 − P1)/(P0 − P1) × 100%, where E’ is the inhibiting efficiency in reporter 293T cells, and P0, P1, and P2 are the GFP positive cell ratio of the uninduced group, Dox and DMSO treated control group, and Dox and compound treated group, respectively.

NotI = NotI in vitro cleavage assay; assay type: biochemical; conditions: compound 200 μM
Procedure: as §1

[4] = tested on: Streptococcus pyogenes Cas9 (SpCas9); conditions: inhibits SpCas9 by blocking its binding to DNA; ref [33]; cited from earlier work

Molecule: 1-(2-(4-nitrophenyl) hydrazono)-4-bromo-acetophenone [C12]
- efficiency of SpCas9 inhibition in reporter cells (SpCas9 [1]; 100 μM, Dox 2 μg/mL, 72 h): 17.1%
- inhibition rate, in vitro SpCas9 cleavage (SpCas9 [2]; compound 200 μM, SpCas9–gRNA 58.8 nM, linearized plasmid 3.48 nM): 84%
- activity of XbaI (XbaI): not affected
- effect on EGFP expression in the absence of Dox induction ([3]; 100 μM, reporter cells, no Dox): no effects
- activity of NotI (NotI): not affected

Molecule: CCC(=O)C=NNc1ccc([N+](=O)[O-])cc1 [C9, 1-(2-(4-nitrophenyl) hydrazono)butanone]
- melting point: 190.3 to 191.7 °C

Molecule: O=C(C=NNc1ccc(Cl)cc1)c1ccc(Br)cc1 [C12b, 1-(4-bromophenyl)-2-(2-(4-chlorophenyl)hydrazono)ethanone]
- inhibitory activity in in vitro SpCas9 cleavage (in words) (SpCas9 [2]; compound 200 μM): strong inhibitory activities
- inhibition at 200 µM (SpCas9 [2]; read-out: inhibition rate, in vitro SpCas9 cleavage): 89%
- melting point: 235.2 to 237.2 °C

Molecule: O=C(C=NNc1cc([N+](=O)[O-])ccc1O)c1ccc(Br)cc1 [C12c, 1-(4-bromophenyl)-2-(2-(2-hydroxy-5-nitrophenyl)hydrazono)ethanone]
- inhibition at 40 µM (SpCas9 [1]; HEK-293T, read-out: SpCas9 inhibition in reporter cells): ~50%
- inhibitory activity in in vitro SpCas9 cleavage (in words) (SpCas9 [2]; compound 200 μM): weakly inhibited
- effect on EGFP expression in uninduced reporter 293T cells ([3]; uninduced, concentration not given): did not negatively affect
- melting point: 246.6 to 247.2 °C

Molecule: O=C(C(=NNc1ccc([N+](=O)[O-])cc1)n1cncn1)c1ccc(F)cc1F [C12d, 1-(2,4-difluorophenyl)-2-(2-(4-nitrophenyl)hydrazono)-2-(1H-1,2,4-triazol-1-yl)ethanone]
- inhibitory activity in in vitro SpCas9 cleavage (in words) (SpCas9 [2]; compound 200 μM): weakly inhibited

Molecule: O=C1CCCC/C1=N/Nc1ccc(N2CCCCC2)cc1 [SP5]
- SpCas9 inhibition in reporter cells (SpCas9 [1]; 40 μM, Dox 2 μg/mL, 72 h): less than 50%

Molecule: O=C1CCCC/C1=N\Nc1ccc([N+](=O)[O-])cc1 [SP6]
- SpCas9 inhibition in reporter cells (SpCas9 [1]; 40 μM, Dox 2 μg/mL, 72 h): less than 50%

Molecule: COc1ccc(C(=O)Oc2ccccc2/C=N\Nc2ccc([N+](=O)[O-])cc2)cc1 [SP8]
- SpCas9 inhibition in reporter cells (SpCas9 [1]; 40 μM, Dox 2 μg/mL, 72 h): less than 50%

Molecule: O=C1CCCC/C1=N/Nc1ccc(OC2CCCCC2)cc1 [SP9]
- SpCas9 inhibition in reporter cells (SpCas9 [1]; 10 μM, Dox 2 μg/mL, 72 h): less than 50%
- SpCas9 inhibition in reporter cells (SpCas9 [1]; 40 μM, Dox 2 μg/mL, 72 h): > 50%

Molecule: CCCCOC(=O)c1ccc(NN=c2c(=O)c3ccccc3c2=O)cc1 [SP11]
- SpCas9 inhibition in reporter cells (SpCas9 [1]; 40 μM, Dox 2 μg/mL, 72 h): less than 50%

Molecule: Cc1cccc(N/N=C(/C#N)C(=O)c2ccc(Br)cc2)c1 [SP12]
- SpCas9 inhibition in reporter cells (SpCas9 [1]; 10 μM, Dox 2 μg/mL, 72 h): less than 50%
- SpCas9 inhibition in reporter cells (SpCas9 [1]; 40 μM, Dox 2 μg/mL, 72 h): > 50%

Molecule: COc1ccc(C(=O)/C(C#N)=N/Nc2ccccc2[N+](=O)[O-])cc1 [SP14]
- SpCas9 inhibition in reporter cells (SpCas9 [1]; 10 μM, Dox 2 μg/mL, 72 h): 50%
- effect on EGFP expression in uninduced cells ([3]; uninduced): reduce EGFP expression (albeit slightly)

Molecule: Cc1ccc(C(=O)/C(C#N)=N\Nc2ccc([N+](=O)[O-])cc2)cc1 [SP15]
- SpCas9 inhibition in reporter cells (SpCas9 [1]; 10 μM, Dox 2 μg/mL, 72 h): 50%
- effect on EGFP expression in uninduced cells ([3]; uninduced): reduce EGFP expression (albeit slightly)

Molecule: O=C1CCCC/C1=N\Nc1ccc(OCc2ccccc2)cc1 [SP19]
- SpCas9 inhibition in reporter cells (SpCas9 [1]; 40 μM, Dox 2 μg/mL, 72 h): less than 50%

Molecule: COc1cc(Cl)ccc1N=NC1C(=O)N(c2ccccc2)N=C1C (stereo not drawn) [SP28]
- SpCas9 inhibition in reporter cells (SpCas9 [1]; 40 μM, Dox 2 μg/mL, 72 h): less than 50%

Molecule: CC1=NN(c2ccccc2)C(=O)C1N=Nc1nc2ccccc2s1 (stereo not drawn) [SP29]
- SpCas9 inhibition in reporter cells (SpCas9 [1]; 10 μM, Dox 2 μg/mL, 72 h): 50%
- effect on EGFP expression in uninduced cells ([3]; uninduced): reduce EGFP expression (albeit slightly)

Molecule: O=C(Oc1ccc(/C=N/Nc2ccccc2)cc1)c1cc([N+](=O)[O-])cc([N+](=O)[O-])c1 [SP32]
- SpCas9 inhibition in reporter cells (SpCas9 [1]; 10 μM, Dox 2 μg/mL, 72 h): less than 50%
- SpCas9 inhibition in reporter cells (SpCas9 [1]; 40 μM, Dox 2 μg/mL, 72 h): > 50%

Molecule: Cc1nc2ccc(N=NC3=C(O)CCCC3=O)cc2s1 [SP33]
- SpCas9 inhibition in reporter cells (SpCas9 [1]; 40 μM, Dox 2 μg/mL, 72 h): less than 50%

Molecule: CCOC(=O)c1oc2c(c1C)/C(=N\Nc1ccc([N+](=O)[O-])cc1)CCC2 [SP34]
- SpCas9 inhibition in reporter cells (SpCas9 [1]; 40 μM, Dox 2 μg/mL, 72 h): less than 50%

Molecule: CC1(C)CC(=O)C(N=Nc2ccc3ncsc3c2)=C(O)C1 [SP36]
- SpCas9 inhibition in reporter cells (SpCas9 [1]; 40 μM, Dox 2 μg/mL, 72 h): less than 50%

Molecule: BRD0539
- pIC50 [4]: 4.66
